# Measured values published in US6664106B1, “Production of primmorphs from disassociated cells of sponges and corals” (priority 1998, dated 2003).
# Legend:
# Assay type in all cases: cell-based, Suberites domuncula
# [1] = system: primmorphs from S. domuncula; experiment: Proliferation of cells in primmorphs (parallel batches, BrdU-positive binuclear stages); details: 0.01 to 1 μg PMA/ml
# Procedure: In order to determine whether the cells do in fact divide after the DNA synthesis, the same batches were analysed which were also used to detect the incorporation of BrdU into cells from the primmorphs of S. domuncula. Those cells which were positive for BrdU and which were still in the binuclear stage after undergoing mitosis were counted.
# In line with the above comments, it was also examined in parallel batches whether any change in proliferation occurred after incubation with the agent used here.
# [2] = system: primmorphs from S. domuncula; experiment: DNA synthesis in primmorphs by BrdU labelling; details: for percentage share of BrdU-positive cells (change in words): after addition as nutrient
# Procedure: In order to determine the cell proliferation, the integration of BrdU [5-bromo-2′-deoxy-uridine] into the cellular DNA was measured using the “BrdU-iabeling and detection kit”, in accordance with the manufacturer's instructions.
# For this purpose, the primmorphs are incubated, usually in 1 ml of the seawater/antibiotic solution, which also contains the BrdU labelling solution [final dilution: usually 1:1,000 (10 μM of BrdU)]. The incubation period is usually 12 hours; the incubation itself is carried out in culture chambers [e.g. the “culture chamber slides (Nunc)”—catalogue number 177453]. Subsequently, the cells are dissociated in CFMSW-E, washed three times in CFMSW-E and fixed/denatured in 70% ethanol [pH 2.0]. After that, the cells are incubated with anti-BrdU mouse monoclonal antibodies and the immune complex is made visible with anti-mouse Ig coupled to alkaline phosphatase and with the dye substrate nitro-blue tetrazolium salt. The cells are analysed under a light-optical microscope.
# The primary primmorphs were obtained from individual cells from S. domuncula and used for the experiments after 21 days.
# For this reason, the influence of a phorbol ester, phorbol 12-inyristate 13-acetate (PMA), on the percentage of BrdU-positive cells in primmorphs from S. domuncula was determined. The primmorphs were incubated for two days with different concentrations of PMA. After that, the DNA synthesis was determined by means of BrdU labelling as described above. The control, percentage of BrdU-positive cells in primmorphs without the test substance, was set at 100%.
# FIG. 5. Influence of the phorbol ester phorbol 12-myristate 13-acetate (PMA) on the percentage share of BrdU-positive cells in primmorphs from S. domuncula. The primmorphs were incubated for two days with different concentrations of PMA. After this, DNA synthesis was determined by means of BrdU labelling. The control, percentage share of BrdU-positive cells among primmorphs without the test substance, was set at 100%. 300 cells were counted per batch.
# FIG. 6. Influence of cadmium, concentrations between 0.1 ng/ml and 100 ng/ml were chosen, on the amount of the percentage share of BrdU-positive cells among primmorphs.
# [3] = system: primmorphs from S. domuncula; experiment: Size (diameter) of primmorphs after addition of nutrients; details: after addition as nutrient
Molecule,proliferation of cells in primmorphs [1],"percentage of BrdU-positive cells in primmorphs ([2]; 0.01 to 1 μg PMA/ml, incubated for two days, control without test substance set at 100%)","percentage of BrdU-positive cells in primmorphs ([2]; cadmium at a concentration of 1 ng/ml and more, single exposure)",percentage share of BrdU-positive cells (change in words) [2],size of the primmorphs (change in words) [3]
"CCCCCCCCCCCCCC(=O)O[C@@H]1[C@@H](C)[C@@]2(O)[C@@H](C=C(CO)C[C@]3(O)C(=O)C(C)=C[C@@H]23)[C@@H]2C(C)(C)[C@]12OC(C)=O [PMA, phorbol 12-myristate 13-acetate]",increase,distinct percentage increase,,,
[Cd] [cadmium],,,decline,,
phosphatidyl serine,,,,rise,increase
phosphatidylinositol,,,,rise,increase
